Where “and” joins values, the source holds several entries; their conditions need not be identical. Equal entries are not always repeated.

The Ki is the dissociation constant of the complex between target and ligand, obtained from inhibition or displacement. A high value points to weaker binding.

Data set [1] concerns the target brain porcine Na^+/K^+-ATPase. The data set is described as follows: In vitro inhibitory assay of Na+/K+-ATPase (colorimetric Pi release). The format is biochemical. The note with it: brain porcine enzyme; mean ± SD; triplicate; read-out: Inhibition of Na^+/K^+-ATPase IC50. The protocol: We used the inhibitory assay method described by [Mugpasao et al. (2014)]. The enzymatic activity of Na^+/K^+-ATPase was determined by colorimetric quantification of orthophosphate (Pi) released during the ATP hydrolysis according to the method of [Taussky, Shorr & Kurzmann (1953)]. The inhibition assays were done using commercial brain porcine Na^+/K^+-ATPase. Protein concentration was determined according to the Bradford method ([Bradford, 1976]) using bovine serum albumin as standard. As inhibitors, we used cardenolides ouabain, calotropin, and C3OG. The cardenolide ouabain was used as a reference molecule. The reaction was done in a 96-wells plate, adding 10 μL of Na^+/K^+-ATPase solution (0.5 U/mL) with 4 μL of NaCl/KCl solution (35 mM of KCl and 1.65 M of NaCl), 70 μL of Tris-HCl buffer (30 mM Tris-HCl, 0.5 mM of EDTA and 7.8 mM of MgCl2) at 37 °C and 30 min with 6 μL either dimethyl sulfoxide (DMSO) or test compounds on each well. The range concentrations of inhibitors were 100.0–0.001 μM of ouabain and 1000.0–0.01 μM of calotropin and C3OG. Then, 20 μL of ATP solution 22 mM was added to each well, and the reaction solution was incubated at 37 °C for 15 min.
Next, we added 30 μL of trichloroacetic acid (TCA) at 30% (w/v) to each well to block the reaction. The 96-wells plate was mixed slightly and centrifuged at 3,000 rpm for 15 min. Finally, 50 μL of the supernatant was transferred to another 96-well plate and were coated with 100 μL of Taussky-Shorr solution. The absorbance was read at 660 nm in a microplate reader ThermoScientific Multiskan (Thermo Fisher, Vantaa, Finland) after incubation of 5 min at room temperature, protected from the light. The color intensity was proportional to the release of orthophosphate, indicating ATP hydrolysis and the Na^+/K^+-ATPase activity. The inhibition of the enzymatic activity by cardenolides was managed in the percentage of Na^+/K^+-ATPase activity compared with control. The data of inhibitory Na^+/K^+-ATPase activity were expressed in IC50 and standard deviation. All experiments were performed in triplicate. […]

Data set [2] deals with porcine brain Na^+/K^+-ATPase. In words: Kinetic analysis of Na+/K+-ATPase inhibition (Michaelis-Menten, Lineweaver-Burk). The format is biochemical. The following applies: for Type of inhibition: Lineweaver-Burk plot, 0.1 and 1.0 μM inhibitor; for Ki: uncompetitive inhibition model, ATP as substrate. The procedure:
The Michaelis-Menten kinetic parameters Km and Vmax of porcine brain Na^+/K^+-ATPase were determined from the initial velocities by modifying the ATP concentrations from 0.125 to 4.0 mM using the enzymatic standard conditions previously mentioned. Initial rates were recorded for 15 min in intervals of 3 min. The measurements were done in the absence or presence of inhibitors. The concentration of Na^+, K^+, and Mg^2+ ions remained constant. The initial velocity when the A. subulata cardenolides were tested was recorded for 15 min. Kinetic analyses were carried out in the presence or absence of two different concentrations of cardenolides (0.1 and 1.0 μM) to determine the nature of the inhibition of the Na^+/K^+-ATPase. All experiments were performed in triplicate. The experimental data were fitted to the Michaelis-Menten equation by non-linear regression analysis. The type of inhibition was obtained by Lineweaver-Burk double reciprocal plots using GraphPad Prism software version 8 (GraphPad Software Inc., San Diego, CA, USA).

Another data set relates to A549, PC-3, and LS-180. Set-up: method as in Rascón-Valenzuela et al. (2015). The note with it: human cancer cell lines A549, PC-3, LS-180; ref Rascón-Valenzuela et al. (2015); cited from earlier work.
Data set [3] addresses porcine cerebral cortex Na^+/K^+-ATPase. Also on record: method as in Agrawal et al. (2021). The following applies: porcine cerebral cortex enzyme; ref Agrawal et al. (2021); cited from earlier work.
The target of a further data set is Na^+/K^+-ATPase. Set-up: method as in Ren et al., 2020. The following applies: reference inhibitor; ref Ren et al., 2020; cited from earlier work.
The mark [4] stands for this setting: in presence of 0.1 μM inhibitor.
[5] abbreviates: in presence of 1.0 μM inhibitor.

On to `C[C@]12CCC3C(CCC4C[C@@H](O[C@@H]5O[C@H](CO)[C@@H](O)[C@H](O)[C@H]5O)CC[C@@]43C=O)[C@@]1(O)CC[C@@H]2C1=CC(=O)OC1` (stereo partly shown) [C3OG, corotoxigenin 3-O-glucopyranoside], for which the IC50 in data set [1] was found to be 870 ± 200 nM. Moreover, in data set [2], the Type of inhibition entry is listed as “Uncompetitive”; the inhibition constant (Ki) is 500 nM and 520 nM. The Vmax in data set [2] (setting [4]) was determined as 1.47 ± 0.08 μmolPi/mg/min. In addition, the Vmax in data set [2] (setting [5]) turned out to be 0.80 ± 0.06 μmolPi/mg/min. Also, in the data set on A549, PC-3, and LS-180, the “IC50 (cytotoxicity)” value is given as “micromolar order”.
Turning to `C[C@@H]1C[C@H](O)[C@]2(O)O[C@@H]3C[C@@]4(C=O)[C@@H](CC[C@@H]5[C@@H]4CC[C@]4(C)[C@@H](C6=CC(=O)OC6)CC[C@]54O)C[C@H]3O[C@@H]2O1` [Calotropin, calotropin], the IC50 in data set [1] is 270 ± 60 nM; in data set [3], 270 nM. In data set [2], the Type of inhibition result is listed as “Uncompetitive”. Moreover, the Vmax in data set [2] (setting [4]) came out at 2.17 ± 0.10 μmolPi/mg/min; in data set [2] (setting [5]) it was 0.77 ± 0.10 μmolPi/mg/min. In data set [2], this molecule had a Ki of 200 ± 30 nM. The “IC50 (cytotoxicity)” value in the data set with A549, PC-3, and LS-180 was “nanomolar order”.
For the molecule `C[C@@H]1O[C@@H](O[C@H]2C[C@@H](O)[C@]3(CO)[C@H]4[C@H](O)C[C@]5(C)[C@@H](C6=CC(=O)OC6)CC[C@]5(O)[C@@H]4CC[C@]3(O)C2)[C@H](O)[C@H](O)[C@H]1O` [Ouabain, ouabain octahydrate, reference compound], the IC50 in data set [1] is 120 ± 20 nM. In data set [2], the Type of inhibition result is recorded as “uncompetitive” and the inhibitory constant (Ki) was 160 nM. The Vmax in data set [2] (setting [4]) is reported as 2.11 ± 0.14 μmolPi/mg/min. The Vmax in data set [2] (setting [5]) amounted to 0.66 ± 0.04 μmolPi/mg/min.
`C[C@H]1O[C@@H](O[C@H]2[C@@H](O)C[C@H](O[C@H]3[C@@H](O)C[C@H](O[C@H]4CC[C@@]5(C)[C@H](CC[C@@H]6[C@@H]5C[C@@H](O)[C@]5(C)[C@@H](C7=CC(=O)OC7)CC[C@]65O)C4)O[C@@H]3C)O[C@@H]2C)C[C@H](O)[C@@H]1O` [digoxin]: the IC50 at Na^+/K^+-ATPase was 230 nM.
